For 19 compounds, Kd results are on record in patent US11319299B2, “Substituted carboxamides as inhibitors of WDR5 protein-protein binding” (PROPELLON THERAPEUTICS INC., priority 2016, dated 2022).

For orientation: Kd means a measure of binding affinity in units of concentration.

This assay addresses WDR5 (Homo sapiens (Human), UniProt P61964). Description: Surface Plasmon Resonance (SPR) assay, KD and residence time. It is filed as binding. As to conditions: surface plasmon resonance (SPR) assay; read-out: WDR5 binding affinity (KD). As to the method:
(i) Surface Plasmon Resonance (SPR) Assay
The lifetime of a drug on its target is determined by two rate constants: the association rate constant (kon) and the dissociation rate constant (koff). In principle, the lifetime of the binary drug—target complex is thus extended by a rapid rate of drug binding and/or a slow rate of drug—target complex dissociation. The in vivo lifetime of a drug-target complex is most critically dependent on the value of the koff [Nat. Rev. Drug Discov. […] Drug Discov. […] Drug-target residence time is defined as the reciprocal of koff (τ=1/koff), making the residence time a parameter that is easily measured by routine in vitro assay methods.
A general note: SPR reads the build-up and loss of mass on a sensor chip optically.
On to `CC1CN(c2cc(F)c(-c3cnc(N4CCOCC4)nc3)cc2NC(=O)c2ccn(C)n2)CCN1C` (stereo in doubt) [Example 192, N-[4-fluoro-5-(2-morpholin-4-ylpyrimidin-5-yl)-2-[(3R)-3,4-dimethylpiperazin-1-yl]phenyl]-1-methylpyrazole-3-carboxamide], for which the Kd was 1260 nM.

For the compound `CC1CN(c2cc(F)c(-c3cnc(N4CCOCC4)nc3)cc2NC(=O)c2cc[nH]n2)CCN1C` (stereo in doubt) [Example 193, N-[4-fluoro-5-(2-morpholin-4-ylpyrimidin-5-yl)-2-[(3R)-3,4-dimethylpiperazin-1-yl]phenyl]-1H-pyrazole-3-carboxamide], the Kd was 592 nM.

In the case of `Cc1nc(C(=O)Nc2cc(-c3cnc(N4CCOCC4)nc3)c(F)cc2N2CCN(C)C(C)C2)cs1` (stereo in doubt) [Example 194, N-[4-fluoro-5-(2-morpholin-4-ylpyrimidin-5-yl)-2-[(3R)-3,4-dimethylpiperazin-1-yl]phenyl]-2-methyl-1,3-thiazole-4-carboxamide], the Kd stood at 113 nM.

Turning to `Cc1ncc(C(=O)Nc2cc(-c3cnc(N4CCOCC4)nc3)c(F)cc2N2CCN(C)C(C)C2)s1` (stereo in doubt) [Example 195, N-[4-fluoro-5-(2-morpholin-4-ylpyrimidin-5-yl)-2-[(3R)-3,4-dimethylpiperazin-1-yl]phenyl]-2-methyl-1,3-thiazole-5-carboxamide], the Kd was 106 nM.

For `CC(=O)Nc1ccc(-c2cc(NC(=O)c3c[nH]c(=O)cc3C(F)(F)F)c(N3CCN(C)C(C)C3)cc2F)cn1` (stereo in doubt) [Example 196, N-[5-(6-acetamidopyridin-3-yl)-4-fluoro-2-[(3R)-3,4-dimethylpiperazin-1-yl]phenyl]-6-oxo-4-(trifluoromethyl)-1H-pyridine-3-carboxamide], the dissociation constant Kd was found to be 0.24 nM.

As for `CC1CN(c2cc(F)c(-c3ccc(OCC4CC4)nc3)cc2NC(=O)c2c[nH]c(=O)cc2C(F)(F)F)CCN1C` (stereo in doubt) [Example 198, N-[5-[6-(cyclopropylmethoxy)pyridin-3-yl]-4-fluoro-2-[(3R)-3,4-dimethylpiperazin-1-yl]phenyl]-6-oxo-4-(trifluoromethyl)-1H-pyridine-3-carboxamide], the Kd was 0.666 nM.

Turning to `Cc1nc(C(F)(F)F)c(C(=O)Nc2cc(-c3cnc(N4CCOCC4)nc3)c(F)cc2N2CCN(C)C(C)C2)s1` (stereo in doubt) [Example 199, N-[4-fluoro-5-(2-morpholin-4-ylpyrimidin-5-yl)-2-[(3R)-3,4-dimethylpiperazin-1-yl]phenyl]-2-methyl-4-(trifluoromethyl)-1,3-thiazole-5-carboxamide], the Kd turned out to be 23.4 nM.

Turning to `CC1CN(c2cc(F)c(-c3cnc(N4CCOCC4)nc3)cc2NC(=O)c2cc(Cl)cc(Cl)c2)CCN1C` (stereo in doubt) [Example 200, 3,5-dichloro-N-[4-fluoro-5-(2-morpholin-4-ylpyrimidin-5-yl)-2-[(3R)-3,4-dimethylpiperazin-1-yl]phenyl]benzamide], the Kd worked out at 9.7 nM.

On to `CC1CN(c2cc(F)c(-c3cccc(CN(C)C4COC4)c3)cc2NC(=O)c2c[nH]c(=O)cc2C(F)(F)F)CCN1C` (stereo in doubt) [Example 214, N-[4-fluoro-5-[3-[[methyl(oxetan-3-yl)amino]methyl]phenyl]-2-[(3R)-3,4-dimethylpiperazin-1-yl]phenyl]-6-oxo-4-(trifluoromethyl)-1H-pyridine-3-carboxamide], for which the Kd is 2.15 nM.

Turning to `CC(=O)Nc1ccc(-c2cc(NC(=O)c3cn(C)c(=O)cc3C(F)F)c(N3CCN(C)C(C)C3)cc2F)cn1` (stereo in doubt) [Example 217, N-[5-(6-acetamidopyridin-3-yl)-4-fluoro-2-[(3R)-3,4-dimethylpiperazin-1-yl]phenyl]-4-(difluoromethyl)-1-methyl-6-oxopyridine-3-carboxamide], the Kd stood at 4.32 nM.

With `CC1CN(c2cc(F)c(-c3cnc(C#N)nc3)cc2NC(=O)c2cn(C)c(=O)cc2C(F)F)CCN1C` (stereo in doubt) [Example 218, N-[5-(2-cyanopyrimidin-5-yl)-4-fluoro-2-[(3R)-3,4-dimethylpiperazin-1-yl]phenyl]-4-(difluoromethyl)-1-methyl-6-oxopyridine-3-carboxamide], the Kd was 3.18 nM.

Turning to `CC1CN(c2cc(F)c(-c3ccc(N(C)C)nc3)cc2NC(=O)c2c[nH]c(=O)cc2C(F)(F)F)CCN1C` (stereo in doubt) [Example 219, N-[5-[6-(dimethylamino)pyridin-3-yl]-4-fluoro-2-[(3R)-3,4-dimethylpiperazin-1-yl]phenyl]-6-oxo-4-(trifluoromethyl)-1H-pyridine-3-carboxamide], the Kd is 1.4 nM.

In the case of `CC1CN(c2cc(F)c(-c3cnc(N4CCOCC4)nc3)cc2NC(=O)c2ccc(F)cc2Cl)CCN1C` (stereo in doubt) [Example 230, 2-chloro-4-fluoro-N-[4-fluoro-5-(2-morpholin-4-ylpyrimidin-5-yl)-2-[(3R)-3,4-dimethylpiperazin-1-yl]phenyl]benzamide], the Kd is 8.95 nM.

In the case of `CC1CN(c2cc(F)c(-c3ccc(N4CCOCC4)nc3)cc2NC(=O)c2c[nH]c(=O)cc2C(F)(F)F)CCN1C` (stereo in doubt) [Example 239, N-[4-fluoro-5-(6-morpholin-4-ylpyridin-3-yl)-2-[(3R)-3,4-dimethylpiperazin-1-yl]phenyl]-6-oxo-4-(trifluoromethyl)-1H-pyridine-3-carboxamide], the Kd worked out at 1.07 nM.

Consider `CC(C)Oc1ncc(-c2cc(NC(=O)c3c[nH]c(=O)cc3C(F)(F)F)c(N3CCN(C)C(C)C3)cc2F)cn1` (stereo in doubt) [Example 240, N-[4-fluoro-5-(2-propan-2-yloxypyrimidin-5-yl)-2-[(3R)-3,4-dimethylpiperazin-1-yl]phenyl]-6-oxo-4-(trifluoromethyl)-1H-pyridine-3-carboxamide], for which the Kd worked out at 2.23 nM.

Turning to `CC1CN(c2cc(F)c(-c3cnc4c(c3)OCCO4)cc2NC(=O)c2c[nH]c(=O)cc2C(F)(F)F)CCN1C` (stereo in doubt) [Example 241, N-[5-(2,3-dihydro-[1,4]dioxino[2,3-b]pyridin-7-yl)-4-fluoro-2-[(3R)-3,4-dimethylpiperazin-1-yl]phenyl]-6-oxo-4-(trifluoromethyl)-1H-pyridine-3-carboxamide], the Kd was found to be 2.82 nM.

In the case of `CC1CN(c2cc(F)c(-c3cnc(N4CCOCC4)nc3)cc2NC(=O)c2cn(C)nc2C(F)(F)F)CCN1C` (stereo in doubt) [Example 284, N-[4-fluoro-5-(2-morpholin-4-ylpyrimidin-5-yl)-2-[(3R)-3,4-dimethylpiperazin-1-yl]phenyl]-1-methyl-3-(trifluoromethyl)pyrazole-4-carboxamide], the Kd was 8.13 nM.

Turning to `CC1CN(c2cc(F)c(-c3cnc(N4CCOCC4)nc3)cc2NC(=O)c2ccc(F)cc2C(F)(F)F)CCN1C` (stereo in doubt) [Example 298, 4-fluoro-N-[4-fluoro-5-(2-morpholin-4-ylpyrimidin-5-yl)-2-[(3R)-3,4-dimethylpiperazin-1-yl]phenyl]-2-(trifluoromethyl)benzamide], the Kd was 4.22 nM.

Turning to `CC1CN(c2cc(F)c(-c3cnc(N4CCOCC4)nc3)cc2NC(=O)c2ccc(F)cc2C(F)(F)F)CCN1C` (stereo in doubt) [Example 299, 4-fluoro-N-[4-fluoro-5-(2-morpholin-4-ylpyrimidin-5-yl)-2-[(3R)-3,4-dimethylpiperazin-1-yl]phenyl]-2-(trifluoromethyl)benzamide], the Kd stood at 0.569 nM.
